≈ marks a conversion by molar mass, not a printed value.

Two molecules from ChEMBL document CHEMBL3431459, “Roche carnitine palmitoyltransferase modulator screening data (supplementary data associated with the publication CHEMBL2216752)” can be followed below.

The nature of data set [1]: SUPPLEMENTARY: PAMPA permeability assay. It counts as physicochemical. The note with it: read-out: Permeability.
Data set [2] is described as follows: SUPPLEMENTARY: Lipophilicity (log D) Determination by high-throughput shake-flask. The note with it: octanol/water. It is filed as physicochemical.
For data set [3], the target named is T1, Carnitine O-palmitoyltransferase 2, mitochondrial (Rattus norvegicus, UniProt P18886).
T1 sequence (P18886 whole entry): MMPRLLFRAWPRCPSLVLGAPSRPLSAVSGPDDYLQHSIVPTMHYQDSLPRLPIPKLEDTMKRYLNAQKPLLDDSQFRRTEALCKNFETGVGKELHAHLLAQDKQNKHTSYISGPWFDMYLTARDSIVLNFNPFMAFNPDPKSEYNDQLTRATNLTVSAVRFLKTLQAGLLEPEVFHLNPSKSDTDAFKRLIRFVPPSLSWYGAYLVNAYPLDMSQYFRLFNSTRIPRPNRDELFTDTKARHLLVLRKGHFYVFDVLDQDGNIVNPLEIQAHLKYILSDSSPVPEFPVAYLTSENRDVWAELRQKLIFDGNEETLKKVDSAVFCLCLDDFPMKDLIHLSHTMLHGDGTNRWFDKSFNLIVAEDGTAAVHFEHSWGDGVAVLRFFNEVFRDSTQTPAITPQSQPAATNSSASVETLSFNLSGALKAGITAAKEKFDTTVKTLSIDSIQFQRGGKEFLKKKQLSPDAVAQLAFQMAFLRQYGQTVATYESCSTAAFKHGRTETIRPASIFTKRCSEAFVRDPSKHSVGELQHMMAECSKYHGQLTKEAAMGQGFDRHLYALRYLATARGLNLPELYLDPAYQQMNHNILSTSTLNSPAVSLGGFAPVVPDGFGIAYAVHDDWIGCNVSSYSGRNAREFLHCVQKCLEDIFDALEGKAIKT
As to the kind of experiment: (§1) SUPPLEMENTARY: Inhibition of Carnitine palmitoyltransferase 2.

Data set [4] concerns the target T2, Carnitine O-palmitoyltransferase 2, mitochondrial (Homo sapiens, UniProt P23786).
T2 sequence (P23786 whole entry): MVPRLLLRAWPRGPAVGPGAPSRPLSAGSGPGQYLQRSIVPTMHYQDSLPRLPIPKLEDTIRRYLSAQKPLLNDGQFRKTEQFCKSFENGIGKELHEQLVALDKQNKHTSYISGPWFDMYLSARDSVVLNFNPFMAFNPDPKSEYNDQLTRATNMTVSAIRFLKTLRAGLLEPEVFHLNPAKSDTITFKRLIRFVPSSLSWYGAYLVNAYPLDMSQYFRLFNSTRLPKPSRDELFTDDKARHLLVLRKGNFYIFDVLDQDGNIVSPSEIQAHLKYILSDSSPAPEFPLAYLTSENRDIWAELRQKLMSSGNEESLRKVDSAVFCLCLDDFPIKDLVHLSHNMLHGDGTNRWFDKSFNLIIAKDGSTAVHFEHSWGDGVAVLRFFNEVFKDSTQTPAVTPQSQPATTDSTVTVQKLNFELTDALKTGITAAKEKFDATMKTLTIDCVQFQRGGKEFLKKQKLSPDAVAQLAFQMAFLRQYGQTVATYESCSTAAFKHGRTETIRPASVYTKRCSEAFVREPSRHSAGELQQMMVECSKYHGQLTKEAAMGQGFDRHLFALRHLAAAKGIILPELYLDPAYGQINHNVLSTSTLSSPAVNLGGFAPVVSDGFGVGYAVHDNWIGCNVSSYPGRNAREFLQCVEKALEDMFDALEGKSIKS
The description is as §1.

The target in data set [5] is T3, Carnitine O-palmitoyltransferase 1, liver isoform (Homo sapiens, UniProt P50416).
T3 sequence (P50416 whole entry): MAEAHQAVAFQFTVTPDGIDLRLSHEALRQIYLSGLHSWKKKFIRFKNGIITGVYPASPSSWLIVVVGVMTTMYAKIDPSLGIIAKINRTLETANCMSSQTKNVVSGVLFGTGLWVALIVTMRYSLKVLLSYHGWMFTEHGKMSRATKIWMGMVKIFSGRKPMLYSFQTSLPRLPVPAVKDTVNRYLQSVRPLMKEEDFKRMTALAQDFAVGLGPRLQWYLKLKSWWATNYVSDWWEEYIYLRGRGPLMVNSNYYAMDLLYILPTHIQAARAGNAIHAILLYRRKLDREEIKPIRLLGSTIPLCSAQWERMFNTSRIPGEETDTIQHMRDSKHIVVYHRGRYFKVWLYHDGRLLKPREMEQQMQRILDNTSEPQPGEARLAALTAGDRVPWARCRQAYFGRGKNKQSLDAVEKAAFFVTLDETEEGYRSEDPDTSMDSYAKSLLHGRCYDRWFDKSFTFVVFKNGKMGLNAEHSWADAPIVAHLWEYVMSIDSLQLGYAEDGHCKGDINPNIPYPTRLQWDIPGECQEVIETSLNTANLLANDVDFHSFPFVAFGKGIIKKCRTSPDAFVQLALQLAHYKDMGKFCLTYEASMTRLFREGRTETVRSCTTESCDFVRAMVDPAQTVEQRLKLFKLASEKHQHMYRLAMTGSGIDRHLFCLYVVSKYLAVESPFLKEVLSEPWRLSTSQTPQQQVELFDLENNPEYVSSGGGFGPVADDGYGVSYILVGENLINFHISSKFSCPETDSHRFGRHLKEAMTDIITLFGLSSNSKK
Kind of data set: (§2) SUPPLEMENTARY: Inhibition of Carnitine palmitoyltransferase 1, liver isoform.

Data set [6] concerns the target T4, Carnitine O-palmitoyltransferase 1, liver isoform (Rattus norvegicus, UniProt P32198).
T4 sequence (P32198 whole entry): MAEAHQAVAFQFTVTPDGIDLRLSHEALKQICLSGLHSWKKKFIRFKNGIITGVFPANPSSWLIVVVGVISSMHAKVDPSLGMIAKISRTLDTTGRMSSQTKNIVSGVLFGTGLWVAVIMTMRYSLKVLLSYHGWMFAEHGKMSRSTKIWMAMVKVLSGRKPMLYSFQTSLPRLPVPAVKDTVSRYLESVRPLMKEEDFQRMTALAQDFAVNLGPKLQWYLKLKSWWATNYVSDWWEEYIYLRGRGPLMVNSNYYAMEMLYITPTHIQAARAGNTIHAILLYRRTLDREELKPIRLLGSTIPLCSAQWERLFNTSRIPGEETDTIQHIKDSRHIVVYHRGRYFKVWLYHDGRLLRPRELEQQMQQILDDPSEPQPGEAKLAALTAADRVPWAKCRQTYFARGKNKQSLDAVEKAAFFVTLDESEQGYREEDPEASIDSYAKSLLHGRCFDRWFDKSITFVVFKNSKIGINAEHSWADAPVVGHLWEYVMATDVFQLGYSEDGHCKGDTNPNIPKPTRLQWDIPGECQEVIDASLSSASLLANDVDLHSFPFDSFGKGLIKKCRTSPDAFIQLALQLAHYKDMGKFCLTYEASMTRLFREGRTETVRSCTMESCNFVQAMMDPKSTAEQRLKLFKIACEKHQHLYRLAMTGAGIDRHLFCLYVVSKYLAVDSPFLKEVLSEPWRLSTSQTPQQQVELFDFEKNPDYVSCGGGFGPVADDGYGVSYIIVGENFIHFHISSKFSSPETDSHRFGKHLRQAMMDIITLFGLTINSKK
The data set is described as §2.

Data set [7] is described as follows: SUPPLEMENTARY: Lyophilisation Solubility Assay (LYSA). It is filed as physicochemical. The note with it: read-out: Kinetic_solubility.
Data set [8] addresses T5, Carnitine O-palmitoyltransferase 1, muscle isoform (Homo sapiens, UniProt Q92523).
T5 sequence (Q92523 whole entry): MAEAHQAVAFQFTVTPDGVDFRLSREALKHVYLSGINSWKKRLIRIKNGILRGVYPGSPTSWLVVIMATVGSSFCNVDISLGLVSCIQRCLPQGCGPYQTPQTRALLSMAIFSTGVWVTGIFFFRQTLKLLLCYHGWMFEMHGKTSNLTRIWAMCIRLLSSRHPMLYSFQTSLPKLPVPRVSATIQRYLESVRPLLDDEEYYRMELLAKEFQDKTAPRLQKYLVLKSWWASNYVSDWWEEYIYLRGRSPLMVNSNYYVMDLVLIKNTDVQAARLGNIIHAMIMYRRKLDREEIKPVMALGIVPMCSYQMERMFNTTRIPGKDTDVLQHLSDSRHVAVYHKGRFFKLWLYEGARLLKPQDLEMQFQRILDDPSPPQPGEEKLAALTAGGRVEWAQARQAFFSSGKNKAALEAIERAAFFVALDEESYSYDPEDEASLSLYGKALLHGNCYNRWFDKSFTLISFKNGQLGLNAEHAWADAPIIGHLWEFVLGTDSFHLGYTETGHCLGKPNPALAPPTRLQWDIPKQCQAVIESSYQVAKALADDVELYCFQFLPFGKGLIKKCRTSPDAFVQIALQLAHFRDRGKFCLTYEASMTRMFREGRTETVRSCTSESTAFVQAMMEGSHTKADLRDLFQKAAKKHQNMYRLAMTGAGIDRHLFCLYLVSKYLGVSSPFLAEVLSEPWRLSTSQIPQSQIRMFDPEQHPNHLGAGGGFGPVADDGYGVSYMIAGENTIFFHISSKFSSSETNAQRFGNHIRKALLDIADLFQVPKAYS
Kind of data set: SUPPLEMENTARY: Inhibition of Carnitine palmitoyltransferase 1, muscle isoform. Details: species or system Muscle tissue.

Turning to `COc1ccc(Cl)cc1S(=O)(=O)c1cn(CCCC(=O)O)c2ccc(C(=O)Nc3ccccc3)cc12`, the Papp in data set [1] came to 0.27 ×10⁻⁶ cm/s. Moreover, in data set [2], the logD (usually lipophilicity at a set pH, counting ionised and neutral species) was 0.98. For the same molecule, the 50% inhibitory concentration (IC50) (as a rule, the concentration that gives 50% inhibition) was more than 100 µM in data set [3]; 38.6 µM in data set [4]; 0.0151 µM in data set [5]; 0.0101 µM in data set [6]; 12 µM in data set [8]. The solubility kinetic in data set [7] turned out to be 133 µg/mL (≈ 252 µM).
Turning to `COc1ccc(Cl)cc1S(=O)(=O)Nc1cc(C(=O)Nc2ccccc2)ccc1/C=C/C(=O)O`, the Papp in data set [1] turned out to be 1 ×10⁻⁶ cm/s. The same molecule had a logD in data set [2] of 0.36. Moreover, the IC50 is more than 100 µM in data set [3]; more than 100 µM in data set [4]; 0.136 µM in data set [5]; 0.0798 µM in data set [6]; 83.1 µM in data set [8]. The solubility kinetic in data set [7] was more than 585 µg/mL.
